{
  "source": "patent US20140088006A1",
  "about": "“Stem Cell Mobilization and Tissue Repair and Regeneration” (Wellstat Therapeutics Corporation, priority 2011, published 2014)",
  "key": {"HSC and HPC": {"system": "HSC and HPC", "assay": "CFU-GM / CFU-GEMM colony assay after 4 daily injections of G-CSF and Compound X", "type": "in vivo, mice", "details": "for CFU-GEMM numbers, MEAN / CFU-GM numbers, MEAN / CFU-GEMM numbers / CFU-GM numbers: 5 μg/mouse each agent s.c. daily for 4 days; for CFU-GEMM numbers / CFU-GM numbers: individual dishes; for Fold increase in number of CFU-GM / Fold increase in number of CFU-Mix (CFU-GEMM): multiple injections, 5 μg/mouse each agent", "method": "Compound X and Neupogen (rG-CSF Amgen, lot# P043601) were diluted in PBS. Mice received subcutaneous injections of PBS, Compound X (5 μg/mouse), G-CSF (5 μg/mouse) or Compound X (5 μg/mouse)+G-CSF (5 μg/mouse) for four consecutive days. […] Mononuclear cells were isolated by density gradient separation from pooled blood. […] Blood was also collected and processed on day 8 for colony assay. Results are shown in Tables 10, 11, and 12 and in FIG. 5."}, "[1]": {"system": "white blood cells in peripheral blood", "assay": "White blood cell count in peripheral blood after single subcutaneous injection", "type": "in vivo, C57Bl6 mice", "details": "for White Blood Cell counts: Cell Count: individual mice", "method": "C57Bl6 male mice, from 8 weeks to 4 month of age, from Harlan were used. Mice received subcutaneous injections of saline, Compound X (50 μg/kg) or Compound X (250 μg/kg). After 1 and 4 hours, mice were anesthetized and blood was collected through the orbital sinus with heparinized capillary tubes. 20 μl of blood was removed from each tube for WBC counts;\nIn this experiment, C57Bl6 mice received subcutaneous injections of PBS, Compound X (250 μg/kg) or AMD3100 (5 mg/kg). After 1 hr blood was collected through the orbital sinus with heparinized capillary tubes. Blood from each group was pooled, counted and mononuclear cells were isolated by density gradient separation. Cells were washed, counted and plated at 100,000 per dish (5 dishes/group) for CFU-GEMM and CFU-GM colonies. CFU-GEMM colonies were scored on day 14, while CFU-GM colonies on day 7 after plating in MC3434 (Stem cell Technology)."}, "spleen cells": {"system": "spleen cells", "assay": "Flow cytometry analysis of stem cell phenotypes in spleens on day 7", "type": "in vivo, mice", "details": "250 μg/kg"}},
  "note": "Values joined by “and” are separate entries in the source; they are usually repeats but may differ in a detail not shown here. Identical values can stand only once. No end group written: not given here.",
  "data": [
    {"sequence": "FPHFDLSHGSAQV [Compound X, tridecapeptide that acts on stem cells]", "values": [
      {"measurement": "CFU-GEMM numbers, MEAN", "setting": "HSC and HPC; Day 4", "result": "2.4 per 100000 mononuclear cells"},
      {"measurement": "CFU-GM numbers, MEAN", "setting": "HSC and HPC; Day 4", "result": "9.6 per 100000 mononuclear cells"},
      {"measurement": "CFU-GEMM numbers", "setting": "HSC and HPC; Day 4", "result": "3 per 100000 mononuclear cells (2×) and 0 per 100000 mononuclear cells and 4 per 100000 mononuclear cells and 2 per 100000 mononuclear cells"},
      {"measurement": "CFU-GM numbers", "setting": "HSC and HPC; Day 4", "result": "7 per 100000 mononuclear cells and 6 per 100000 mononuclear cells and 13 per 100000 mononuclear cells and 11 per 100000 mononuclear cells (2×)"},
      {"measurement": "CFU-GEMM numbers, MEAN", "setting": "HSC and HPC; Day 8", "result": "0.6 per 100000 mononuclear cells"},
      {"measurement": "CFU-GM numbers, MEAN", "setting": "HSC and HPC; Day 8", "result": "0.6 per 100000 mononuclear cells"},
      {"measurement": "CFU-GEMM numbers", "setting": "HSC and HPC; Day 8", "result": "1 per 100000 mononuclear cells (3×) and 0 per 100000 mononuclear cells (2×)"},
      {"measurement": "CFU-GM numbers", "setting": "HSC and HPC; Day 8", "result": "1 per 100000 mononuclear cells (3×) and 0 per 100000 mononuclear cells (2×)"},
      {"measurement": "number of CFU-GEMM or CFU-GM", "setting": "HSC and HPC; 5 μg/mouse s.c. daily for 4 days, day 8", "result": "no difference found"},
      {"measurement": "Fold increase in number of CFU-GM", "setting": "HSC and HPC; Day 4", "result": 1.9, "unit": "Fold"},
      {"measurement": "Fold increase in number of CFU-Mix (CFU-GEMM)", "setting": "HSC and HPC; Day 4, 1 hr after the last injection", "result": 1.7, "unit": "Fold"},
      {"measurement": "Fold increase in number of CFU-GM", "setting": "HSC and HPC; Day 8", "result": 0, "unit": "Fold"},
      {"measurement": "Fold increase in number of CFU-Mix (CFU-GEMM)", "setting": "HSC and HPC; Day 8", "result": 0, "unit": "Fold"},
      {"measurement": "White blood cell count: Cell Count", "setting": "[1]; s.c. 250 μg/kg, 1 hr, pooled blood", "result": "7.2e+06", "unit": "mL⁻¹"},
      {"measurement": "White Blood Cell counts: Cell Count", "setting": "[1]; single s.c. 50 μg/kg, 1 hour", "result": "1.41e+07 mL⁻¹ and 7.8e+06 mL⁻¹ and 9.6e+06 mL⁻¹"},
      {"measurement": "White Blood Cell counts: Cell Count", "setting": "[1]; single s.c. 50 μg/kg, 4 hours", "result": "2.22e+07 mL⁻¹ and 6.9e+06 mL⁻¹ and 1e+07 mL⁻¹"},
      {"measurement": "White Blood Cell counts: Cell Count", "setting": "[1]; single s.c. 250 μg/kg, 1 hour", "result": "9.6e+06 mL⁻¹ and 9.2e+06 mL⁻¹ and 1.79e+07 mL⁻¹"},
      {"measurement": "White Blood Cell counts: Cell Count", "setting": "[1]; single s.c. 250 μg/kg, 4 hours", "result": "1.67e+07 mL⁻¹ and 1.46e+07 mL⁻¹ and 1.03e+07 mL⁻¹"},
      {"measurement": "egress of cells from bone marrow into peripheral blood (white blood cell count)", "setting": "[1]; single s.c. 50 or 250 μg/kg", "result": "did not cause massive egress of cells"},
      {"measurement": "accumulation of cells with stem cell phenotypes in the spleens", "setting": "spleen cells", "result": "No accumulation"},
      {"measurement": "CD34+ Flk-1+, Mean", "setting": "spleen cells; spleen", "result": 0.03},
      {"measurement": "CD34+ Flk-1−, Mean", "setting": "spleen cells; spleen", "result": 0.05},
      {"measurement": "CD34− Flk-1+, Mean", "setting": "spleen cells; spleen", "result": 0.38},
      {"measurement": "CD150+ CD48−, Mean", "setting": "spleen cells; spleen", "result": 0.17},
      {"measurement": "CD244+ CD48+, Mean", "setting": "spleen cells; spleen", "result": 0.78},
      {"measurement": "Lin− Kit+ Sca-1+, Mean", "setting": "spleen cells; spleen", "result": 0.07},
      {"measurement": "Lin− Kit+ Sca-1−, Mean", "setting": "spleen cells; spleen", "result": 0.50},
      {"measurement": "Lin− Kit^low Sca-1+, Mean", "setting": "spleen cells; spleen", "result": 0.17}
    ]}
  ]
}
